Experimental data reported in ChEMBL document CHEMBL5512607, “Journey of Von Hippel-Lindau (VHL) E3 ligase in PROTACs design: From VHL ligands to VHL-based degraders” (Eur J Med Chem, 2024).

Key:
Bcl-2-like protein 1 = Bcl-2-like protein 1 (Homo sapiens, UniProt Q07817); assay: Induction of Bcl-xl degradation in HEK293T cells incubated for 16 hrs by immunoblotting analysis; type: cell-based
[1] = target: Apoptosis regulator Bcl-2 (Homo sapiens, UniProt P10415); assay: Induction of Bcl2 degradation in HEK293T cells incubated for 16 hrs by immunoblotting analysis; type: cell-based
Apoptosis regulator Bcl-2, sequence (P10415 whole entry): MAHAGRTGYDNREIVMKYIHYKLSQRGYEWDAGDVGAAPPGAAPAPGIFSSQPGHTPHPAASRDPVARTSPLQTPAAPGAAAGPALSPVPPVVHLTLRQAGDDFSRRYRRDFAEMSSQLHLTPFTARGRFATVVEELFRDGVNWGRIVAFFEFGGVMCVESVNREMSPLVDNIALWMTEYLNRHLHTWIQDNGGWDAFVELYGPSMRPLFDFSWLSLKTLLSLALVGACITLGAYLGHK

[2] = target: T1, von Hippel-Lindau disease tumor suppressor/Bcl-2-like protein 1 (Homo sapiens, UniProt Q07817+P40337); assay: PROTAC activity at VHL/BCL-XL in human THP-1 cells assessed as induction of protein degradation by measuring maximal degradation relative to control; type: cell-based
Target sequence in this assay (P40337 whole entry, looked up): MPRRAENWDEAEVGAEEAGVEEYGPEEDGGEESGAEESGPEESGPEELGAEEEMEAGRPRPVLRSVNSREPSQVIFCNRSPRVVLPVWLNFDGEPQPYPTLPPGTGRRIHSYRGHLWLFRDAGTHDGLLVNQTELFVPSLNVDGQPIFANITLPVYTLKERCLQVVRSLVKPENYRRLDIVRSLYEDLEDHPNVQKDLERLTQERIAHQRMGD
Target sequence in this assay (Q07817 whole entry, looked up): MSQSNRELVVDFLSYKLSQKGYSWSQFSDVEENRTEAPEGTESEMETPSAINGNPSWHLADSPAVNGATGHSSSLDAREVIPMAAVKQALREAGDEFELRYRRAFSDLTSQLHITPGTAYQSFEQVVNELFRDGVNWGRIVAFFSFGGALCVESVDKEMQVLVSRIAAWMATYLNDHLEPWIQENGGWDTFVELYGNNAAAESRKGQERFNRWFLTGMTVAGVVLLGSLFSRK

MOLT-4 [3] = assay: Antiproliferative activity against human MOLT-4 cells assessed as cell growth inhibition incubated for 72 hrs by Cell Titer-Glo Luminescent assay; type: functional, cell-based; conditions: MOLT-4, 72 h
[4] = target: T1, von Hippel-Lindau disease tumor suppressor/Bcl-2-like protein 1; assay: PROTAC activity at VHL/BCL-XL in human THP-1 cells assessed as induction of BCL-XL degradation incubated for 16 hrs by immunoblot analysis; type: cell-based
Target sequence in this assay (Q07817 whole entry): as the sequence (Q07817 whole entry, looked up) above
Target sequence in this assay (P40337 whole entry): as the sequence (P40337 whole entry, looked up) above

[5] = target: T2, von Hippel-Lindau disease tumor suppressor/Epidermal growth factor receptor (Homo sapiens, UniProt P00533+P40337); assay: PROTAC activity at VHL/EGFR del19 mutant in human HCC827 cells assessed as protein degradation incubated for 24 hrs by immunoblot analysis; type: cell-based
T2 sequence (P00533 whole entry, looked up, stated change not applied): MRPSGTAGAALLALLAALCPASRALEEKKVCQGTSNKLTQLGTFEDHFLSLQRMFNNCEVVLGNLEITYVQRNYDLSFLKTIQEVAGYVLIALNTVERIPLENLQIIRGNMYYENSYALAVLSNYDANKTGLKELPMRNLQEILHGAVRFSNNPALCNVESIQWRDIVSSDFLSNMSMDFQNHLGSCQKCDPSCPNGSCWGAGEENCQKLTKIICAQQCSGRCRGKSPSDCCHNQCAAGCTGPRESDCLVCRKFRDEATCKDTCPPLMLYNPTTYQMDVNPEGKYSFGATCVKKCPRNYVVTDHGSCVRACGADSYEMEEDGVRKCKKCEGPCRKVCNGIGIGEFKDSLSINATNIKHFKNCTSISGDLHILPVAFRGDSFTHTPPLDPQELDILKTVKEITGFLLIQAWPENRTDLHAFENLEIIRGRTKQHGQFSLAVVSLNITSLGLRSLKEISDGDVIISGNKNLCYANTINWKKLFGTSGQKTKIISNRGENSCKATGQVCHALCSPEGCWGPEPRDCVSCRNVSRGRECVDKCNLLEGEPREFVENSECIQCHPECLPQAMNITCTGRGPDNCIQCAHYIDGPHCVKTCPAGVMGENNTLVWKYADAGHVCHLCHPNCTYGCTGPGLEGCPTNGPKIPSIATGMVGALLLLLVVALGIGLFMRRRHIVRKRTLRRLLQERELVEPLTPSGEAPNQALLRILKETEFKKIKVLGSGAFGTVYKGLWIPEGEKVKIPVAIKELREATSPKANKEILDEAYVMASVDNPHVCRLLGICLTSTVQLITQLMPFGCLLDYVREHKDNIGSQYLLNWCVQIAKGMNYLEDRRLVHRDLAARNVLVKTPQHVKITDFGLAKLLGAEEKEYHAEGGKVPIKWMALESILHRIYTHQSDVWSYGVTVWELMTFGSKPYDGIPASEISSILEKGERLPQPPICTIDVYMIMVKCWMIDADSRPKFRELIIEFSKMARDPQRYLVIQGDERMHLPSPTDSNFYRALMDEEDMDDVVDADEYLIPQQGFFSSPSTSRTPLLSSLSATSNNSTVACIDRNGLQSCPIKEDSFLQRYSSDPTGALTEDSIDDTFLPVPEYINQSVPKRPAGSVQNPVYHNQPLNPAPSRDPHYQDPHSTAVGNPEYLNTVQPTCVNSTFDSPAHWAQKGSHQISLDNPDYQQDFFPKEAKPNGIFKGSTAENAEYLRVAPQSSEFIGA
T2 sequence (P40337 whole entry, looked up, stated change not applied): as the sequence (P40337 whole entry, looked up) above

[6] = target: T2, von Hippel-Lindau disease tumor suppressor/Epidermal growth factor receptor; assay: PROTAC activity at VHL/EGFR del19 mutant in human NCI-H3255 cells assessed as protein degradation incubated for 24 hrs by immunoblot analysis; type: cell-based
[7] = system: von Hippel-Lindau disease tumor suppressor/Epidermal growth factor receptor (Homo sapiens), P00533+P40337 [UNDEFINED MUTATION]; assay: PROTAC activity at VHL/EGFR del19 mutant in human HCC827 cells assessed as maximal degradation incubated for 24 hrs by immunoblot analysis relative to control; type: cell-based
von Hippel-Lindau disease tumor suppressor/Epidermal growth factor receptor (Homo sapiens), P00533+P40337 [UNDEFINED MUTATION], sequence (P00533 whole entry, looked up, stated change not applied): as the sequence (P00533 whole entry, looked up, stated change not applied) above
von Hippel-Lindau disease tumor suppressor/Epidermal growth factor receptor (Homo sapiens), P00533+P40337 [UNDEFINED MUTATION], sequence (P40337 whole entry, looked up, stated change not applied): as the sequence (P40337 whole entry, looked up) above

[8] = system: von Hippel-Lindau disease tumor suppressor/Epidermal growth factor receptor (Homo sapiens), P00533+P40337 [UNDEFINED MUTATION]; assay: PROTAC activity at VHL/EGFR del19 mutant in human NCI-H3255 cells assessed as maximal degradation incubated for 24 hrs by immunoblot analysis relative to control; type: cell-based
MOLT-4 [9] = assay: Anticancer activity against human MOLT-4 cells assessed as reduction in cell viability incubated for 72 hrs by MTS assay; type: functional, cell-based; conditions: MOLT-4, 72 h
[10] = target: T1, von Hippel-Lindau disease tumor suppressor/Bcl-2-like protein 1; assay: Protac activity at VHL/BCL-XL in human MOLT-4 cells assessed as induction of protein degradation by measuring maximal degradation relative to control; type: cell-based
Target sequence in this assay (P40337 whole entry, looked up): as above
Target sequence in this assay (Q07817 whole entry, looked up): as the sequence (Q07817 whole entry, looked up) above

[11] = target: T1, von Hippel-Lindau disease tumor suppressor/Bcl-2-like protein 1; assay: PROTAC activity at VHL/BCL-XL in human MOLT-4 cells assessed as induction of BCL-XL degradation incubated for 16 hrs by immunoblot analysis; type: cell-based
Target sequence in this assay (Q07817 whole entry): as the sequence (Q07817 whole entry, looked up) above
Target sequence in this assay (P40337 whole entry): as the sequence (P40337 whole entry, looked up) above

Bcl-2-like protein 1, sequence (Q07817 whole entry): as the sequence (Q07817 whole entry, looked up) above

Question: With `Cc1ncsc1-c1ccc([C@H](C)NC(=O)[C@@H]2C[C@@H](O)CN2C(=O)[C@H](NC(=O)CCCCCCC(=O)N2CCN(C[C@]3(C)CCC(c4ccc(Cl)cc4)=C(CN4CCN(c5ccc(C(=O)NS(=O)(=O)c6ccc(N[C@H](CCN7CCOCC7)CSc7ccccc7)c(S(=O)(=O)C(F)(F)F)c6)cc5)CC4)C3)CC2)C(C)(C)C)cc1` as the compound, how does the DC50 (Bcl-2-like protein 1) read?
Answer: 6 nM

Question: And the DC50 [1]?
Answer: 48 nM

Question: With `Cc1ncsc1-c1ccc(CNC(=O)[C@@H]2C[C@@H](O)CN2C(=O)[C@H](NC(=O)CCOCCOCCOCCOCCOCCOCC#Cc2ccc(OCCCc3sc(N4CCc5cccc(C(=O)Nc6nc7ccccc7s6)c5C4)nc3C(=O)O)cc2)C(C)(C)C)cc1` as the compound, how does the Emax [2] read?
Answer: 76%

Question: And the EC50 (MOLT-4 [3])?
Answer: 578 nM

Question: What about the DC50 [4] of the same compound?
Answer: 4.8 nM

Question: How did the DC50 [5] turn out when `COc1cc2ncnc(Nc3ccc(F)c(Cl)c3)c2cc1OCCCCCOCCOCCC(=O)N[C@@H](C(=O)N1C[C@@H](O)C[C@@H]1C(=O)NCc1ccc(-c2scnc2C)cc1)C(C)(C)C` was run?
Answer: 11.7 nM

Question: What about the DC50 [6] of the same compound?
Answer: 22.3 nM

Question: And the Emax [7]?
Answer: 98.9%

Question: What about the Emax [8] of the same compound?
Answer: 96.6%

Question: Which EC50 (MOLT-4 [9]) does the source give for `Cc1ncsc1-c1ccc([C@H](C)NC(=O)[C@H]2C[C@H](O)CN2C(=O)[C@@H](NC(=O)CCCCCC(=O)N2CCN(CC[C@H](CSc3ccccc3)Nc3ccc(S(=O)(=O)NC(=O)c4ccc(N5CCN(CC6=C(c7ccc(Cl)cc7)CCC(C)(C)C6)CC5)cc4)cc3S(=O)(=O)C(F)(F)F)CC2)C(C)(C)C)cc1` here?
Answer: 52 nM

Question: And the Emax [10]?
Answer: 90.8%

Question: And the DC50 [11]?
Answer: 53 nM
